Our source for the logP and dose excreted values is ChEMBL document CHEMBL1123680, “The influence of physicochemical parameters on the biliary excretion of a series of nitroimidazoles” (J Med Chem, 1987).

A short description of series [1]: Partition coefficient (logP). As to conditions: octanol/water.
Series [2] can be described thus: Percent biliary excretion property by administering intravenously to rats was reported as amount of unchanged form of compound detected in bile samples collected at 0-1 hr after the treatment. To be noted: rat, iv.
The nature of series [3]: Percent biliary excretion property by administering intravenously to rats was reported as amount of unchanged form of compound detected in bile samples collected at 0-5 hr after the treatment. As to conditions: rat, iv.
Series [4] is described as follows: Percent biliary excretion property by administering intravenously to rats was reported as amount of unchanged form of compound detected in bile samples collected at 0-2 hr after the treatment. To be noted: rat, iv.
The nature of series [5]: Percent biliary excretion property by administering intravenously to rats was reported as amount of unchanged form of compound detected in bile samples collected at 0-3 hr after the treatment. To be noted: rat, iv.
Series [6] is described as follows: Percent biliary excretion property by administering intravenously to rats was reported as amount of unchanged form of compound detected in bile samples collected at 0-4 hr after the treatment. As to conditions: rat, iv.
Series [7] can be described thus: Percent biliary excretion property by administering intravenously to rats was reported as amount of unchanged form of compound detected in bile samples collected at 0-6 hr after the treatment. To be noted: rat, iv.

In turn, `Cn1c([N+](=O)[O-])cnc1C=O` registered a logP in series [1] of -0.69. The dose excreted in series [2] was found to be 13%; in series [3] it was 31.1%; in series [4] it was 19.2%; in series [5], 25%; in series [6], 29.2%; in series [7] it was 32%.

Consider `O=[N+]([O-])c1c[nH]cn1`, for which the dose excreted in series [2] came to 8.71%; in series [3] it was 24.3%; in series [4] it was 14.1%; in series [5] it was 17.6%; in series [6], 20.9%; in series [7] it was 26.2%.

For `Cn1c([N+](=O)[O-])cnc1CO`, the dose excreted in series [2] was 16.7%; in series [3] it was 34.6%; in series [4], 23.3%; in series [5], 29.6%; in series [6], 34.6%; in series [7], 37.8%.

As for `Cn1c([N+](=O)[O-])cnc1/C=C/c1ccnc(N)n1` [AZANIDAZOLE], the dose excreted in series [2] was found to be 14.4%; in series [3], 30.6%; in series [4], 21.1%; in series [5], 25%; in series [6] it was 28.4%; in series [7], 33.1%.

Take `COC(=S)NCCn1c([N+](=O)[O-])cnc1C` [CARNIDAZOLE]: the dose excreted in series [2] is 1.91%; in series [3], 8.42%; in series [4] it was 3.43%; in series [5], 5.11%; in series [6] it was 7%; in series [7], 8.94%.

Turning to `CC(C)c1ncc([N+](=O)[O-])n1C` [IPRONIDAZOLE], the dose excreted amounted to 2.99% in series [2]; 14% in series [3]; 5.37% in series [4]; 9.6% in series [5]; 11.7% in series [6]; 14% in series [7].

Consider `Cc1ncc([N+](=O)[O-])n1CCO` [METRONIDAZOLE], for which the dose excreted in series [2] was determined as 6.77%; in series [3], 22.3%; in series [4], 12.5%; in series [5], 16.8%; in series [6] it was 19.7%; in series [7], 24.6%.

`O=[N+]([O-])c1cncn1CCN1CCOCC1` [NIMORAZOLE]: the dose excreted in series [2] worked out at 3.42%; in series [3] it was 10.7%; in series [4], 5.25%; in series [5] it was 6.92%; in series [6] it was 8.71%; in series [7], 11.8%.

As to `Cc1ncc([N+](=O)[O-])n1CC(O)CCl` (stereo not drawn) [ORNIDAZOLE], the dose excreted in series [2] was 1.68%; in series [3], 13.5%; in series [4] it was 7.33%; in series [5], 10.6%; in series [6], 12.3%; in series [7], 14.7%.

`Cn1c([N+](=O)[O-])cnc1COC(N)=O` [RONIDAZOLE]: in series [1], the logP was -0.38. Also, the dose excreted in series [2] turned out to be 4%; in series [3], 16.2%; in series [4], 6.96%; in series [5], 8.88%; in series [6] it was 15.5%; in series [7], 19.7%.

As to `CCS(=O)(=O)CCn1c([N+](=O)[O-])cnc1C` [TINIDAZOLE], the dose excreted was determined as 1.99% in series [2]; 8.81% in series [3]; 3.47% in series [4]; 5.25% in series [5]; 7.58% in series [6]; 10.5% in series [7].

A word on the logP: it is the decadic logarithm of the partition coefficient of the neutral form, usually between octanol and water. A lower logP goes with a more hydrophilic compound.
